Measurements as given in patent publication US10703717B2, “Water-soluble isatin derivative, and manufacturing method and application thereof” (TIANJIN UNIVERSITY OF SCIENCE & TECHNOLOGY, priority 2016, dated 2020).

Key:
Water solubility = assay type: physicochemical; conditions: for water solubility, in words: summary of table 1
K562 cells = assay: In-vitro anti-tumor activity, MTT assay, human leukemia K562 cells; assay type: cell-based; conditions: 48 h
Method: (§1) Anti-Tumor Activity Determination Method
(§2) Preparation of PBS buffer: Sodium chloride 8 g, potassium chloride 0.2 g, disodium hydrogen phosphate dodecahydrate 2.9 g, potassium dihydrogen phosphate 0.2 g and purified water 800 mL were placed into a 1000 mL conical flask, the mixture was stirred and dissolved to a volume of 1000 mL. After autoclaving, PBS buffer was stored in a refrigerator at 4° C.
(§3) Preparation of MTT solution: 0.5 g MTT dry powder was dissolved in 100 mL PBS buffer. After sterilizing by filtration through a […] filter, it was stored in a refrigerator at −12° C.
(§4) Three kinds of tumor cells were used in the antitumor activity assay of the present invention: human liver cancer cells (HepG2), human leukemia cells (K562) and human colon cancer cells (HCT116).
Activity test using human leukemia K562 cells
The human leukemia cells (K562) were grown in RPMI1640 medium supplemented with 10% fetal bovine serum, 1% penicillin/streptomycin and were cultured in an incubator of 5% CO2 at 37° C.
The method comprises the following steps:
(1) After counting the cells with a hemocytometer, dilute it to a density of 5×10^4 cells/mL with RPMI1640 medium;
(2) 100 μl cell suspension was added in each well of 96-well plates and incubated at 37° C. for 2 h;
(§5) (3) The compound to be tested was diluted to five concentrations: 2 mM, 200 μM, 20 μM, 2 μM, 0.2 μM. Then, 0.5 μL compound of different concentrations was added to the well and incubated at 37° C. for another 48 h;
(§6) (4) MTT (5 mg/ml) was added to each well and the plate was further incubated for 4 h at 37° C.;
(5) Dissolving the cells with DMSO, and the OD values were measured at 570 nm and 630 nm by a microplate reader;
(6) Process the data by calculating the IC50 value based on the OD values.

HepG2 cells = assay: In-vitro anti-tumor activity, MTT assay, human liver cancer HepG2 cells; assay type: cell-based; conditions: 48 h
Method: as §1
(§7) Preparation of low glucose DMEM medium: MEM medium (Hyclone) was purchased with low glucose, 500 mL per bottle, 10% fetal bovine serum and 1% streptomycin solution were added in it. That is, 50 mL of fetal bovine serum and 5 mL of streptomycin were added to each flask of the medium. The preparation of the medium was carried out in an ultra-clean workbench and stored in a refrigerator at 4° C.
as §2, §3, §4
Activity Test Using Human Liver Cancer HepG2 Cells
The human liver cancer cells (HepG2) were grown in DMEM medium supplemented with 10% fetal bovine serum, 1% penicillin/streptomycin and were cultured in an incubator of 5% CO2 at 37° C. The method comprises the following steps:
(1) After counting the cells with a hemocytometer, dilute it to a density of 5×10^4 cells/mL with low glucose DMEM medium;
(§8) (2) 100 μl cell suspension was added in each well of 96-well plates and incubated at 37° C. for 24 h;
as §5, §6
(§9) (5) Dissolving the cells with DMSO, and the OD values were measured at 490 nm and 630 nm by a microplate reader; […]

HCT116 cells = assay: In-vitro anti-tumor activity, MTT assay, human colon cancer HCT116 cells; assay type: cell-based; conditions: HCT-116, 48 h
Method: as §1
as §7, with “DMEM/F-12” for “low glucose DMEM”, “MEM/F-12” for “MEM”, “purchased,” for “purchased with low glucose,”
as §2, §3, §4
Activity test using human colon cancer HCT116 cells
The human colon cancer cells (HCT116) were grown in DMEM/F-12 medium supplemented with 10% fetal bovine serum, 1% penicillin/streptomycin and were cultured in an incubator of 5% CO2 at 37° C. The method comprises the following steps:
(1) After counting the cells with a hemocytometer, dilute it to a density of 5×10^4 cells/mL with DMEM/F-12 medium;
as §8
(3) The compound to be tested was diluted to five concentrations: 2 mM, 200 μM, 20 μM, 2 μM, 0.2 μM. Then, 0.5 μL compound of different concentrations was added to each well and incubated at 37° C. for another 48 h;
(4) MTT (5 mg/ml) was added to the well and the plate was further incubated for 4 h at 37° C.;
as §9

[1] = test system: tumor cells (HepG2, K562, HCT116); assay: In-vitro anti-tumor activity, summary in words over the three tumor cell lines; assay type: cell-based, human; conditions: summary of table 1; for cytotoxic / anti-tumor activity, in words: compared with precursor/parent compound
From the text: as §1, §4

Water solubility (Water solubility)	IC50 (K562 cells)	IC50 (HepG2 cells)	IC50 (HCT116 cells)	water solubility, in words (Water solubility)	SMILES	cytotoxic / anti-tumor activity, in words [1]	activity compared with positive reference substance camptothecin [1]
>10 g/100 g	1000 to 10000 nM	1000 to 10000 nM	1000 to 10000 nM	obviously improved	COc1ccc(CN2C(=O)C(=O)c3cc(-c4ccc(O)c(CN(C)C)c4)ccc32)cc1 [Compound 1]	still retains certain cytotoxic activity	
>10 g/100 g	< 10 nM	1000 to 10000 nM	< 10 nM	obviously improved	COC(=O)/C=C/c1ccc2c(c1)C(=O)C(=O)N2Cc1ccc(O)c(CN(C)C)c1 [Compound 2]	greatly improved	superior

SMILES	Water solubility (Water solubility)	IC50 (K562 cells)	IC50 (HepG2 cells)	IC50 (HCT116 cells)	water solubility, in words (Water solubility)	cytotoxic / anti-tumor activity, in words [1]	activity compared with positive reference substance camptothecin [1]
CC[C@@]1(O)C(=O)OCc2c1cc1n(c2=O)Cc2cc3ccccc3nc2-1 [CPT, camptothecin, reference compound]	insoluble	100 to 1000 nM	100 to 1000 nM	100 to 1000 nM			
